This note sets out measurements from the METLIN SMRT retention time set (Domingo-Almenara et al. 2019).

The nature of the data set: gradient 5% acetonitrile 3 min, to 50% in 2 min, to 85% in 15 min, held 3 min, 100 µL/min. As to conditions: column: Zorbax Extend-C18 2.1 x 50 mm; eluents: water / acetonitrile, 0.1% formic acid. In a few lines: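 Retention time was recorded from adduct peaks, which were picked computationally and each inspected manually. Pure standards ran in mixtures of ~100 molecules on HPLC coupled to a quadrupole time-of-flight mass spectrometer, in positive and negative ionization mode, through a Zorbax Extend-C18 column (2.1 × 50 mm, 1.8 μm) at 100 μL/min. Eluents were water and acetonitrile, each with 0.1% formic acid.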
The compound `COC(=O)c1cc(S(=O)(=O)N2CCCC2C(=O)Nc2nc3ccc(OC)cc3s2)cn1C` (stereo not given) had an RP-LC retention time of 893 s.

Take `COc1cccc(NC(=O)C2CCN(C(=O)C3CC(=O)N(c4ccccc4)C3)CC2)c1` (stereo not given): the RP-LC retention time turned out to be 714 s.

As for `CCNC(=O)c1cc(=O)[nH]c2c(Cl)cccc12`, the RP-LC retention time was determined as 614 s.

`CCC(C)NC(=O)N1CCc2c(c(-c3nc(Cc4ccccc4)no3)nn2C)C1` (stereo not given): the RP-LC retention time turned out to be 870 s.

With `O=S(=O)(NCc1nc(-c2cccc(-c3ccn[nH]3)c2)no1)c1ccccc1`, the RP-LC retention time came out at 768 s.

Compound `COCCN1C(=O)c2ccccc2C(C(=O)Nc2ccc(NC(C)=O)cc2)C12CCCCC2` (stereo not given) showed an RP-LC retention time of 706 s.

The compound `CC(C)CN1C(=O)CCc2cc(NS(=O)(=O)c3ccccc3)ccc21` yielded an RP-LC retention time of 844 s.

The compound `CCCC(NC(=O)c1sccc1C)C(=O)Nc1nc2ccccc2[nH]1` (stereo not given) came in with an RP-LC retention time of 686 s.

`O=C1CSC(c2cccs2)N1c1nncs1` (stereo not given) came in with an RP-LC retention time of 804 s.

`CCOC(=O)c1cc(S(=O)(=O)N(C)CC(=O)N2CCN(c3ccccn3)CC2)cn1C` returned an RP-LC retention time of 614 s.

Compound `CC(C)CCNC(=O)c1cn2cc(Cl)ccc2n1` showed an RP-LC retention time of 825 s.

In the case of `CCn1c(=O)c(N2CCN(C(=O)Nc3ccc(Br)cc3F)CC2)nc2cccnc21`, the RP-LC retention time is 1000 s.

In turn, `Cc1nc(C2CN(S(=O)(=O)c3cc(F)ccc3F)CC23CCOCC3)no1` (stereo not given) came in with an RP-LC retention time of 834 s.

`Cc1ccccc1NC(=O)Cn1c(C)nc2onc(C)c2c1=O` came in with an RP-LC retention time of 738 s.

The compound `O=S(=O)(c1cccn2c(SCc3ccc(F)cc3Cl)nnc12)N1CCCCC1` had an RP-LC retention time of 879 s.

The compound `Cc1ccc(C(=O)N2[C@H]3CC[C@@H]2c2cnc(-c4ccc(F)cc4)nc2C3)cn1` gave an RP-LC retention time of 735 s.

With `Cc1cccc(NC(=O)Cc2cn(C)c3ncccc23)c1`, the RP-LC retention time is 722 s.

As to `Cc1oc(C2CCN(C(=O)Nc3cccc(Cl)c3C)CC2)nc1C(=O)N(C)C`, the RP-LC retention time is 728 s.

`O=C(Cc1ccc(F)cc1)NC1CCN(c2cc(-c3ccccc3)[nH]n2)C1` (stereo not given) registered an RP-LC retention time of 706 s.

For `O=C(Cn1cnc2nc(N3CCCC(C(=O)NC4CC4)C3)sc2c1=O)Nc1ccc2c(c1)CCC2` (stereo not given), the RP-LC retention time is 744 s.

Take `CCc1nnc2cc(N3CCN(C(=O)Nc4cccc(C)c4)CC3)cnn12`: the RP-LC retention time came to 593 s.

`CCOc1cccc(CNC(=O)c2c(C)sc3ccn(C)c(=O)c23)c1` returned an RP-LC retention time of 804 s.

For the compound `COc1ccc(S(=O)(=O)Nc2cc(N3CCCS3(=O)=O)ccc2OC)cc1F`, the RP-LC retention time is 721 s.

Compound `O=C1CN(C(=O)CSc2ccccc2)c2ccccc2N1` registered an RP-LC retention time of 694 s.

With `COc1ccc(C(=O)N2CCN(c3nc(-c4ccccc4)no3)CC2)cc1OC`, the RP-LC retention time came out at 849 s.

For `CCn1c(=O)c2cc(C(=O)Nc3ccc(C(F)(F)F)cc3)nn2c2ccccc21`, the RP-LC retention time stood at 1090 s.

Turning to `CCOC(=O)c1cn(CC(=O)Nc2ccc(Br)cc2)c2nc(C)ccc2c1=O`, the RP-LC retention time was 821 s.

Compound `O=C(Nc1cnc(-c2ccccc2)nc1)c1ccccc1C(F)(F)F` displayed an RP-LC retention time of 970 s.

Take `COc1ccc(-n2cc(C(=O)OCC(=O)OC(C)C)c3ccccc3c2=O)cc1`: the RP-LC retention time came out at 1060 s.

In the case of `OCCn1cc(-c2cnc3nnn(Cc4ccc5ncccc5c4)c3n2)cn1`, the RP-LC retention time was 620 s.

Turning to `Cc1ccc(NC(=O)C2CCN(S(=O)(=O)c3ccc4c(c3)CCCC(=O)N4)CC2)cc1`, the RP-LC retention time turned out to be 948 s.

`Cc1ccc(-c2cc(C(N)=O)[nH]n2)cc1C`: the RP-LC retention time turned out to be 690 s.

In the case of `CCOc1cccc(-c2noc(Cc3nnc(-c4cccc(OC)c4)o3)n2)c1`, the RP-LC retention time turned out to be 1080 s.

Compound `Cc1ccc(-c2cc3c4nnc(SCC(=O)Nc5cccc(C)c5C)n4ccn3n2)cc1C` showed an RP-LC retention time of 1000 s.

Compound `COc1cc(NC(=O)N2CCCC(C)(C(=O)NCc3ccc(C)cc3)C2)cc(OC)c1OC` (stereo not given) gave an RP-LC retention time of 811 s.

As to `CCOC(=O)N1CCN(C(=O)c2cc(-c3ccco3)on2)CC1`, the RP-LC retention time was determined as 735 s.

Compound `CCc1nc(-c2csc(S(=O)(=O)N3CCCC(C(=O)Nc4ccccc4OC)C3)c2)no1` (stereo not given) registered an RP-LC retention time of 1060 s.

`CC(C)n1cnc2cc(CNC(=O)C3CCCCC3)ccc21` showed an RP-LC retention time of 611 s.

Compound `Cc1ccc(F)c(NC(=O)c2sc(-c3cn(C)c4ncccc34)nc2C)c1` showed an RP-LC retention time of 874 s.

Compound `O=C(Cn1c2ccccc2n2c(=O)cc(-c3ccc(F)cc3)nc12)NCc1ccco1` yielded an RP-LC retention time of 912 s.

For the compound `CCC(=O)N1C[C@@H]2C(=O)N(CCc3ccccc3)C(=O)[C@@H]2C1`, the RP-LC retention time amounted to 702 s.

`CCc1cccc(C)c1Nc1c(-c2ccc(OC)c(OC)c2)nc2cnccn12`: the RP-LC retention time came to 805 s.

In turn, `CSc1nnc(-c2cccc(S(=O)(=O)N3CCCC3)c2)o1` had an RP-LC retention time of 770 s.

For the compound `CCNC(=O)c1ccc2c(c1)CCN2C(C)=O`, the RP-LC retention time worked out at 609 s.

As to `Cc1cccc(C2(O)C(=O)N(CC(=O)NCc3ccco3)c3ccccc32)c1` (stereo not given), the RP-LC retention time amounted to 630 s.

With `CCOC(=O)c1[nH]c(C)c(CCC(=O)N2CCC(C(=O)NCc3cccs3)CC2)c1C`, the RP-LC retention time turned out to be 755 s.

For the compound `O=C(Nc1nc(-c2ccccc2)cs1)Oc1ccccc1`, the RP-LC retention time came to 1030 s.

In turn, `COc1ncccc1CNC(=O)c1cccn1C` showed an RP-LC retention time of 704 s.

With `O=C(Cc1csc(NC(=O)c2ccsc2)n1)Nc1nc2c(s1)CCCC2`, the RP-LC retention time stood at 874 s.

The compound `COc1ccc(N2CCN(c3nc(C(=O)N4CCN(C(C)C)CC4)cs3)CC2)cc1` registered an RP-LC retention time of 627 s.

As to `CCOC(=O)c1ccc(NC(=O)c2cnc(-c3ccc(C)cc3)nc2-c2ccncc2)cc1`, the RP-LC retention time came out at 1050 s.

`COc1ccc(OC)c(CNC(=O)c2c(O)c3cccnc3[nH]c2=O)c1` displayed an RP-LC retention time of 921 s.

Consider `O=C(NCc1ccc(-c2noc(-c3cc(F)ccc3F)n2)s1)C1CC1`, for which the RP-LC retention time is 932 s.

`O=C(Nc1ccc(Cl)cc1F)N1CCCN(C2CCN(CC3CC3)C2=O)CC1` (stereo not given) gave an RP-LC retention time of 575 s.

`CC(C)C(=O)Nc1nnc(SCc2nnc(-c3ccc4c(c3)OCO4)o2)s1`: the RP-LC retention time turned out to be 773 s.

With `O=C(Nc1ccc(F)cc1Cl)C1CCN(C(=O)c2cccn2-c2cccnc2)CC1`, the RP-LC retention time turned out to be 727 s.

`CC(C)Cn1c(=O)c2ccccc2n(Cc2nc(-c3cccc(Cl)c3)no2)c1=O` had an RP-LC retention time of 1250 s.

For `COCCn1ccc2nc(C)c(C(=O)Nc3ccc4c(c3)OCCO4)cc2c1=O`, the RP-LC retention time turned out to be 679 s.

Regarding `O=C(c1cc(-c2ccccc2Cl)nc2ccccc12)N1CCN(c2ccccn2)CC1`, the RP-LC retention time is 676 s.

As to `Brc1cncc(-c2nc(-c3ccc4c(c3)ncn4CCN3CCCC3)no2)c1`, the RP-LC retention time came to 631 s.

Regarding `O=C(Nc1ccccc1-c1nc2ccccc2[nH]1)c1cccc([N+](=O)[O-])c1`, the RP-LC retention time came to 1040 s.

In turn, `CCn1ccc2oc(C)c(C(=O)N3CCN(c4ccc(Cl)cc4)CC3)c2c1=O` registered an RP-LC retention time of 854 s.

Compound `COc1cccc(CCC(=O)N2C[C@@H]3C[C@H]2C[C@@H]3NC(=O)c2cccs2)c1` returned an RP-LC retention time of 753 s.

`COCc1ncc(C)n1CC1CCN(Cc2sccc2C)CC1` returned an RP-LC retention time of 534 s.

The compound `CCOC(=O)c1c(C)[nH]c(C(=O)N2CCCC(C(=O)NC3CCCC3)C2)c1C` (stereo not given) registered an RP-LC retention time of 759 s.

On to `Cc1ccc(-n2ncc3c(C)nnc(SCC(=O)N4CCC(C)CC4)c32)cc1C`, for which the RP-LC retention time stood at 716 s.

Turning to `CN(C)C(=O)c1n[nH]c2c1CN(C(=O)CCC(=O)c1ccc(F)cc1)CC2`, the RP-LC retention time stood at 653 s.

Compound `Cc1ccc(-c2cc3c4nnc(SCC(=O)Nc5ccccc5C(F)(F)F)n4ccn3n2)cc1C` registered an RP-LC retention time of 1020 s.

`O=C(Cn1c(Cc2ccccc2)nc2ccccc21)N1CCCCC1` gave an RP-LC retention time of 667 s.

With `CCCC(=O)Nc1nc2ccc(CCC(=O)N3CCN(c4ccccn4)CC3)cc2s1`, the RP-LC retention time came out at 603 s.

`Cc1ccc(-n2cc(C(=O)OCc3ccco3)c3ccccc3c2=O)cc1` had an RP-LC retention time of 1170 s.

`C=CCn1c(-c2ccc(OC)cc2)nc2nc3ccccc3nc21` returned an RP-LC retention time of 813 s.

In turn, `CC1=NS(=O)(=O)N(C)C=C1C(=O)OCc1nc(-c2cccc(C)c2)no1` displayed an RP-LC retention time of 1020 s.

The compound `CCOc1ccc(C(=O)NC2CCN(c3cc(-c4ccccc4)[nH]n3)C2)cc1OCC` (stereo not given) registered an RP-LC retention time of 748 s.

Turning to `CCOc1ccccc1NC(=O)c1ccccc1[N+](=O)[O-]`, the RP-LC retention time worked out at 823 s.

For the compound `CC(NC(=O)c1cc2sccc2n1C)c1ccc2c(c1)OCCO2` (stereo not given), the RP-LC retention time is 903 s.

Consider `CN(C)c1ccc(-c2nc(-c3cn(Cc4ccc(F)cc4)nn3)no2)cc1`, for which the RP-LC retention time is 1010 s.

Turning to `Cc1ccc(Cl)cc1NC(=O)N1CCc2nc[nH]c2C1`, the RP-LC retention time was found to be 612 s.

Turning to `O=C(C1Cc2ccccc2CN1S(=O)(=O)c1cccs1)N1CCCCCC1` (stereo not given), the RP-LC retention time turned out to be 932 s.

Take `O=C(c1cc(-c2ccccc2)n(C2CCS(=O)(=O)C2)n1)N1CCCC1` (stereo not given): the RP-LC retention time is 682 s.
